# Experiments:
# [1] = target: T1, Muscarinic acetylcholine receptor M1 (Homo sapiens) (UniProt P11229); assay: Positive allosteric modulation of human muscarinic acetylcholine receptor M1 expressed in CHO cells assessed as increase in acetylcholine-induced calcium mobilization pretreated for 4 mins followed by acetylcholine addition and measured after 4 mins by Fluo-4-AM dye based FLIPR assay; format: functional, cell-based
# T1 sequence (whole entry): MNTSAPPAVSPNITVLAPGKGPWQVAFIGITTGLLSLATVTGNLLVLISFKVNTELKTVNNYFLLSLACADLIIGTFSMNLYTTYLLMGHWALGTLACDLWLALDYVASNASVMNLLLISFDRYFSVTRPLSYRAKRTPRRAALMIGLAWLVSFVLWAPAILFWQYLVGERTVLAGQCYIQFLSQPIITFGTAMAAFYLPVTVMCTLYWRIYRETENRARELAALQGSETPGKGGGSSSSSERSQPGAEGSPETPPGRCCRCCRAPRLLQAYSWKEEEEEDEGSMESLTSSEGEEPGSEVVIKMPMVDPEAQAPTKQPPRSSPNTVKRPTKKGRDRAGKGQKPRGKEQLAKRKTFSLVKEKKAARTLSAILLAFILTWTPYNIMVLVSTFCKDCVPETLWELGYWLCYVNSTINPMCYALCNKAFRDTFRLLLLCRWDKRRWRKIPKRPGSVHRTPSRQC
# [2] = Ratio of total drug level in cerebrospinal fluid to unbound plasma concentration in Sprague-Dawley rat at 10 mg/kg, po; format: ADME, organism-based, CSF/Plasma; settings: in vivo
# [3] = Lipophilicity, log D of the compound by HPLC method; format: physicochemical
# [4] = Kinetic solubility of the compound at pH 2; format: physicochemical; settings: buffer, read-out: Kinetic_solubility
# [5] = Kinetic solubility of the compound at pH 7; format: physicochemical; settings: buffer, read-out: Kinetic_solubility
# [6] = target: Voltage-gated inwardly rectifying potassium channel KCNH2 (Homo sapiens, UniProt Q12809)
# MDR1 (P-gp, ABCB1) [7] = target: T2, MDR1 (P-gp, ABCB1) (Homo sapiens, UniProt P08183); assay: Substrate activity at MDR1 (unknown origin) assessed as apparent permeability; format: ADME; settings: not told
# [8] = Intrinsic clearance in human microsomes; format: ADME, Microsome
# [9] = Oral bioavailability in Sprague-Dawley rat at 10 mg/kg; format: ADME, organism-based; settings: in vivo
# [10] = Terminal half life in Sprague-Dawley rat at 10 mg/kg, po or 2 mg/kg, iv; format: ADME, organism-based; settings: in vivo, read-out: beta t1/2 (converted)
# [11] = Clearance in Sprague-Dawley rat at 10 mg/kg, po or 2 mg/kg, iv; format: ADME, organism-based; settings: in vivo
# [12] = Volume of distribution at steady state in Sprague-Dawley rat at 10 mg/kg, po or 2 mg/kg, iv; format: ADME, organism-based; settings: in vivo, read-out: Vdss
# [13] = Oral bioavailability in Mongrel dog at 3 mg/kg; format: ADME, organism-based, Canis lupus familiaris; settings: in vivo
# [14] = Terminal half life in Mongrel dog at 3 mg/kg, po or 1 mg/kg, iv; format: ADME, organism-based, Canis lupus familiaris; settings: in vivo, read-out: beta t1/2 (converted)
# [15] = Clearance in Mongrel dog at 3 mg/kg, po or 1 mg/kg, iv; format: ADME, organism-based, Canis lupus familiaris; settings: in vivo
# [16] = Volume of distribution at steady state in Mongrel dog at 3 mg/kg, po or 1 mg/kg, iv; format: ADME, organism-based, Canis lupus familiaris; settings: in vivo, read-out: Vdss
# [17] = Oral bioavailability in rhesus monkey at 1 mg/kg; format: ADME, organism-based, Macaca mulatta; settings: in vivo
# [18] = Terminal half life in rhesus monkey at 1 mg/kg, po or 0.5 mg/kg, iv; format: ADME, organism-based, Macaca mulatta; settings: in vivo, read-out: beta t1/2 (converted)
# [19] = Clearance in rhesus monkey at 1 mg/kg, po or 0.5 mg/kg, iv; format: ADME, organism-based, Macaca mulatta; settings: in vivo
# [20] = Volume of distribution at steady state in rhesus monkey at 1 mg/kg, po or 0.5 mg/kg, iv; format: ADME, organism-based, Macaca mulatta; settings: in vivo, read-out: Vdss
# [21] = Equilibrium solubility of the compound at pH <4; format: physicochemical
# [22] = Equilibrium solubility of the compound at pH 8 to 10; format: physicochemical; settings: buffer
# [23] = target: T3, Polyunsaturated fatty acid 5-lipoxygenase (Homo sapiens, UniProt P09917); assay: Inhibition of recombinant human 5-LOX using arachidonic acid as substrate measured after 5 mins by fluorescence assay
# T3 sequence (P09917 whole entry): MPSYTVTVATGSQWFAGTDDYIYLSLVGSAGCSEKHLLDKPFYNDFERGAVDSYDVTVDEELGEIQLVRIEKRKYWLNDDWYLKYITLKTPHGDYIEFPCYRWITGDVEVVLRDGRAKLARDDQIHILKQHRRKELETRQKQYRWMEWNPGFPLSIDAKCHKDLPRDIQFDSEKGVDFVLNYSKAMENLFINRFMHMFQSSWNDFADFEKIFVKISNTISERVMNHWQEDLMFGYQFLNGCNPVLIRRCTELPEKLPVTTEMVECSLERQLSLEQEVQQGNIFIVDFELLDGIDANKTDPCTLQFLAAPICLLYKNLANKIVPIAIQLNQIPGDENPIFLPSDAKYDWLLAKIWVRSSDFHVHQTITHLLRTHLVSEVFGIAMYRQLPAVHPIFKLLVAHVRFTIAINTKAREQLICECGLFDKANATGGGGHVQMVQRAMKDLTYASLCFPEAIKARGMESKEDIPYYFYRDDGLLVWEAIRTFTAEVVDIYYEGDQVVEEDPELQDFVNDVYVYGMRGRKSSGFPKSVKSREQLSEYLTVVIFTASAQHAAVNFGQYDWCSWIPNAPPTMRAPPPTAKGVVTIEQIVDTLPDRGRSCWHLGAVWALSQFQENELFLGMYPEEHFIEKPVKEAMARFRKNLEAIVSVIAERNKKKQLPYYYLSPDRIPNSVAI
# [24] = Inhibition of PDE4 (unknown origin); design: species or system Homo sapiens
# Cytochrome P450 2C9 = Cytochrome P450 2C9 (Homo sapiens, UniProt P11712); assay: Competitive reversible inhibition of CYP2C9 (unknown origin); format: ADME
# Hepatocyte = assay: Induction of CYP3A4 mRNA expression in human hepatocytes at 0.1 to 10 uM; format: ADME, cell-based
# Cytochrome P450 3A4 = Cytochrome P450 3A4 (Homo sapiens, UniProt P08684); assay: Induction of CYP3A4 activity in human hepatocytes at 0.1 to 10 uM; format: ADME, cell-based
# MDR1 (P-gp, ABCB1) [25] = target: T2, MDR1 (P-gp, ABCB1); assay: Substrate activity at MDR1 (unknown origin) assessed as efflux ratio of permeability from basolateral to apical side over apical to basolateral side; format: ADME; settings: not told
# [26] = Equilibrium solubility of the compound in simulated gastric fluid using crystalline compound; format: physicochemical
# [27] = Equilibrium solubility of the compound in fasted state simulated intestinal fluid using crystalline compound; format: physicochemical
# Voltage-gated inwardly rectifying potassium channel KCNH2, sequence (Q12809 whole entry): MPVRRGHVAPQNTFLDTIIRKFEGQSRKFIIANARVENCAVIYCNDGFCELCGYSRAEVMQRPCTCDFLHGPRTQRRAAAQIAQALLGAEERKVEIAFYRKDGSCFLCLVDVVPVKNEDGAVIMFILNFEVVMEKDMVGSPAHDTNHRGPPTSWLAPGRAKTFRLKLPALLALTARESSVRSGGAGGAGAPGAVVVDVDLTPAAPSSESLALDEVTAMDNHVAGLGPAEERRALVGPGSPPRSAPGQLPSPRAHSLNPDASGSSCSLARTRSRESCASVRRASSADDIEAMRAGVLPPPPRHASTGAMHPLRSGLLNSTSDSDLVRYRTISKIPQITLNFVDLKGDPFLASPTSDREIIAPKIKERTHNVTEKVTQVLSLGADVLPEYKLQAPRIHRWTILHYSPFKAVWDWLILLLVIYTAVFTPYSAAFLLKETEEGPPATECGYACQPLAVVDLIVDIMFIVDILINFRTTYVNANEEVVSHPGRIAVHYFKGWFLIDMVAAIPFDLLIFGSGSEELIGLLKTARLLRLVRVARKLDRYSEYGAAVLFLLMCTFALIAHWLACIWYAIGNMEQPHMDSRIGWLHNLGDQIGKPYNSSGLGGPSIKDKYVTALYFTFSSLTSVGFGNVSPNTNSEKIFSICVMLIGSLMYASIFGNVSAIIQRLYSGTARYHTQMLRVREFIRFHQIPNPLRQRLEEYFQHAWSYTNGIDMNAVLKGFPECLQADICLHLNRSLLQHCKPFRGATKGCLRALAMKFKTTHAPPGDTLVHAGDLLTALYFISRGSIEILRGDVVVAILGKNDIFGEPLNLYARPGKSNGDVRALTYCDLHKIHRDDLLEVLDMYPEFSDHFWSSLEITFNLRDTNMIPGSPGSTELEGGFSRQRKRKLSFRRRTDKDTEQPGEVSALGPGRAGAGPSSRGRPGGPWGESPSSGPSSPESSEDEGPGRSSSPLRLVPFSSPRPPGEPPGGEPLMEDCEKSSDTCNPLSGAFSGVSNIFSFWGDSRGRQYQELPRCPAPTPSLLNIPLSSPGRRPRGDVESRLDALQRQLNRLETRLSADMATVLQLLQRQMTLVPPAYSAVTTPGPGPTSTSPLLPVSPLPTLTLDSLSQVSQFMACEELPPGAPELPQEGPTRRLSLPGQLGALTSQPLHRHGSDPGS
# T2 sequence (P08183 whole entry): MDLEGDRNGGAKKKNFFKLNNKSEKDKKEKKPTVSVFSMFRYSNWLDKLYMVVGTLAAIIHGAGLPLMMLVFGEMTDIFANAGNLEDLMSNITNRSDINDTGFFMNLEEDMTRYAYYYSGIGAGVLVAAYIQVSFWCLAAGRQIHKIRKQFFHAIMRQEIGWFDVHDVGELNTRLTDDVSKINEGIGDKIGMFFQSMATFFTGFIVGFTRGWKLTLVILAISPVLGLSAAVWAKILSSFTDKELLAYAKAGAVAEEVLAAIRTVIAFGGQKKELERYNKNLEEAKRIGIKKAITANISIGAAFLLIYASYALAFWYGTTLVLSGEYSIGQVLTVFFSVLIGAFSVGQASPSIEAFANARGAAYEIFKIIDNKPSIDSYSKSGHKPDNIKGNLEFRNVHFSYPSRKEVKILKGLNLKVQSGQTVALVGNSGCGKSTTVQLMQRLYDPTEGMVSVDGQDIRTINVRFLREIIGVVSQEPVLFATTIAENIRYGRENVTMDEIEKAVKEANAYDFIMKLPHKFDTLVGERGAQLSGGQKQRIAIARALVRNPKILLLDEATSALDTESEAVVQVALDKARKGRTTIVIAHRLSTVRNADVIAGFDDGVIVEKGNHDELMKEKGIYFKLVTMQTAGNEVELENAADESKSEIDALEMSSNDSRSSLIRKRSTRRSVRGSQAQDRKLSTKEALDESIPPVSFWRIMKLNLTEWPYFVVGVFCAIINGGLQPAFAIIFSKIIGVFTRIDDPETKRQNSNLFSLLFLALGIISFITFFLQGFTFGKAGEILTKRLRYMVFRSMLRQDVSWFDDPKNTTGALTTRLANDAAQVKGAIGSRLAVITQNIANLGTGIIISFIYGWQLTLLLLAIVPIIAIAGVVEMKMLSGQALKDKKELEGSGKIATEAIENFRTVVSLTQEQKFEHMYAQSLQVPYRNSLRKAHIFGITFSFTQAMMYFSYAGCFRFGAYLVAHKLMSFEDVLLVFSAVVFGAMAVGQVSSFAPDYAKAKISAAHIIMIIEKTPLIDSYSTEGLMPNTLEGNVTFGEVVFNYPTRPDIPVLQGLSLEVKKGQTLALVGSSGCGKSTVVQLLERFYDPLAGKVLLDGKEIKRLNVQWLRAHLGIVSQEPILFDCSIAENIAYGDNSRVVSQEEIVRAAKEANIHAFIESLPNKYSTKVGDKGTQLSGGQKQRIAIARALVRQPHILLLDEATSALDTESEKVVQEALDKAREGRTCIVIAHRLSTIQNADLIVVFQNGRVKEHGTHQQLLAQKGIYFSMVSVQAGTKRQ
# Cytochrome P450 2C9, sequence (P11712 whole entry): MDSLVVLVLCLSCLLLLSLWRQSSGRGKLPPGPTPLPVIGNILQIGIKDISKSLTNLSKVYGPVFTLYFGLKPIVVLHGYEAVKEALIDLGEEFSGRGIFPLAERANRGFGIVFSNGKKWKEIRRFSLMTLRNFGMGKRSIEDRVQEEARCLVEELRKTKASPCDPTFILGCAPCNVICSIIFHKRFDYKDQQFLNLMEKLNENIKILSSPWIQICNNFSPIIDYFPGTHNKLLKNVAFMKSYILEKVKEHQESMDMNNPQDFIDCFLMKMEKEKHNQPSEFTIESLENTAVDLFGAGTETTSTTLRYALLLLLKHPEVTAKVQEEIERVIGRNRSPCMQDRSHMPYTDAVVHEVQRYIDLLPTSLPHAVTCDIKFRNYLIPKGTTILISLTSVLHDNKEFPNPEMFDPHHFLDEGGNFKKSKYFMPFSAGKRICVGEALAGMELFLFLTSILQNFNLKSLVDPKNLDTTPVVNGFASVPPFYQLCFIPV
# Cytochrome P450 3A4, sequence (P08684 whole entry): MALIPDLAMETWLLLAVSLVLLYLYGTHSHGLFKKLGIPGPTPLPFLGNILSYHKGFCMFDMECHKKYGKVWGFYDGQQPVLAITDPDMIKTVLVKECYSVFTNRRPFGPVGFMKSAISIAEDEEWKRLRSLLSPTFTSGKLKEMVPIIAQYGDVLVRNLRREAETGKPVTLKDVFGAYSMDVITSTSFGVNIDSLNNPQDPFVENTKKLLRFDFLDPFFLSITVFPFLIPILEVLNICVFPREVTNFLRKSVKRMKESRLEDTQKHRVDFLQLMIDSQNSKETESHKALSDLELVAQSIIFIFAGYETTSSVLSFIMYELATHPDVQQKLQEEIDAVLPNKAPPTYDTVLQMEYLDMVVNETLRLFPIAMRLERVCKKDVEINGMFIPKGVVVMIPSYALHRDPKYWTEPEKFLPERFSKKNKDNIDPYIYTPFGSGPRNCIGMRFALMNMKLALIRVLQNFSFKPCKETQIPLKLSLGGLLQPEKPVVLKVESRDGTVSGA
compound,measurement,setting,value
COc1ccc(Cc2cc3c(=O)n([C@H]4CCCC[C@@H]4O)cnc3c3ccccc23)cn1,IP,[1],0.018 µM
same,Ratio,[2],1
same,logD,[3],3
same,solubility kinetic,[4],71 µM
same,solubility kinetic,[5],< 3 µM
same,IC50,[6],6.4 µM
COc1ccc(Cc2cc3c(=O)n(-c4ccccc4F)cnc3c3ccccc23)cc1,IP,[1],0.82 µM
COc1ccc(Cc2cc3c(c4ccccc24)CN([C@H]2CCCC[C@@H]2O)C3=O)cc1,IP,[1],0.052 µM
Cc1ccc(Cc2cc3c(=O)n([C@H]4CCCC[C@@H]4O)cnc3c3ccccc23)cn1 [MK-7622],logD,[3],2.6
same,solubility kinetic,[4],191 µM
same,solubility kinetic,[5],17 µM
same,Papp,"MDR1 (P-gp, ABCB1) [7]",33 ×10⁻⁶ cm/s
same,CLint scaled,[8],15 mL/min/kg
same,bioavailability,[9],56%
same,half-life,[10],1.3 h
same,clearance,[11],18.9 mL/min/kg
same,Vd,[12],0.94 L/kg
same,bioavailability,[13],76%
same,half-life,[14],8.7 h
same,clearance,[15],4.5 mL/min/kg
same,Vd,[16],2.4 L/kg
same,bioavailability,[17],40%
same,half-life,[18],1.8 h
same,clearance,[19],7.6 mL/min/kg
same,Vd,[20],1.2 L/kg
same,solubility thermodynamic,[21],6000 to 9000 µg/mL
same,solubility thermodynamic,[22],< 1 µg/mL
same,IC50,[23],4.4 µM
same,IC50,[24],2.1 µM
same,IC50,Cytochrome P450 2C9,13.3 µM
same,Activity,Hepatocyte,Not Active
same,Activity,Cytochrome P450 3A4,Not Active
O=c1c2cc(Cc3ccc(Cl)nc3)c3ccccc3c2ncn1[C@H]1CCCC[C@@H]1O,IP,[1],0.013 to 0.015 µM
same,Ratio,[2],0.9
same,logD,[3],3.1
same,solubility kinetic,[4],< 2 µM
same,solubility kinetic,[5],< 2 µM
same,efflux ratio,"MDR1 (P-gp, ABCB1) [25]",1.1
same,IC50,[6],13 µM
COc1ccc(Cn2cc(C(=O)O)c(=O)c3ccccc32)cc1,IP,[1],0.66 µM
COc1ccc(Cn2cc3c(=O)onc-3c3ccccc32)cc1,IP,[1],> 100 µM
COc1ccc(Cn2cc3c(=O)[nH]nc-3c3ccccc32)cc1,IP,[1],57 µM
Cc1ccc(Cc2cc3c(=O)n([C@H]4CCCC[C@@H]4O)cnc3c3ccccc23)cn1.O=C(O)/C=C/C(=O)O,solubility thermodynamic,[26],2300 µg/mL
same,solubility thermodynamic,[27],40 µg/mL
COc1ccc(Cc2cc3c(=O)n([C@H]4CCCC[C@@H]4O)cnc3c3ccccc23)cc1,IP,[1],0.22 µM
COc1ccc(Cc2cc3c(=O)n(-c4ccccc4F)ccc3c3ccccc23)cc1,IP,[1],3.3 µM
O=c1c2cc(Cc3cccnc3)c3ccccc3c2ncn1[C@H]1CCCC[C@@H]1O (relative stereo),IP,[1],0.042 µM
same,Ratio,[2],0.5
same,logD,[3],2.4
same,solubility kinetic,[4],181 µM
same,solubility kinetic,[5],34 µM
same,IC50,[6],12 µM
COc1ccc(Cn2cc3c(=O)n(-c4ccccc4)nc-3c3ccccc32)cc1,IP,[1],8.9 µM
CSc1ccc(Cc2cc3c(=O)n([C@H]4CCCC[C@@H]4O)cnc3c3ccccc23)cn1,IP,[1],0.021 µM
same,logD,[3],3.2
same,solubility kinetic,[4],102 µM
same,solubility kinetic,[5],< 2 µM
same,IC50,[6],7.5 µM
COc1ccc(Cn2cc3c(=O)n(-c4ccccc4F)nc-3c3ccccc32)cc1,IP,[1],0.41 µM

# — ChEMBL document CHEMBL4196115 (ACS Med Chem Lett, 2018)
